# From publication PMC3293179 (MedChemComm, 2011)
# Assays:
# [1] = target: LHR (Homo sapiens, UniProt P22888); assay: Selectivity test against LHR; type: cell-based
# [2] = target: T1, FSHR (Homo sapiens, UniProt P23945); assay: Selectivity test against FSHR; type: cell-based
# T1 sequence (P23945 18-695): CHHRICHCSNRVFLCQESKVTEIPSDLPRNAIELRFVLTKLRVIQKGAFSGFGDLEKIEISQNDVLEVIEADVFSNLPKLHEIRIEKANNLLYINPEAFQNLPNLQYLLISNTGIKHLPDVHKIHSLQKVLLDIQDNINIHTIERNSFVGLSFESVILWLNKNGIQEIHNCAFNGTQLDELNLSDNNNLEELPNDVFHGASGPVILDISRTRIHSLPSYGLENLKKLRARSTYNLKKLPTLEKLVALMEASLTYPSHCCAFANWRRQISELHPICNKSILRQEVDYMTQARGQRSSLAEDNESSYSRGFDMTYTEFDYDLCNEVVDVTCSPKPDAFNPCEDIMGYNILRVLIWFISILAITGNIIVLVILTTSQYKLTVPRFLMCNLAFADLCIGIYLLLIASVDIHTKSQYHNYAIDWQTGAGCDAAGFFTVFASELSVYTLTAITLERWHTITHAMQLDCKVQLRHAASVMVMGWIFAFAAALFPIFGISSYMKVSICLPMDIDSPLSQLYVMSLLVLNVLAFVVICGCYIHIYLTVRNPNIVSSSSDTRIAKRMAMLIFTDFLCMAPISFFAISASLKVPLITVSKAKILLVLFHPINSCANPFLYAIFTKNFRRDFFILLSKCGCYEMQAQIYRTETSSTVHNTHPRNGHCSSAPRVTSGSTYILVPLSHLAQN
# [3] = target: T2, TSHR (Homo sapiens, UniProt P16473); assay: ELISA cAMP assay in HEK-EM293 cells expressing TSHR; type: cell-based; conditions: for fold more potent than the hit compound 1a: potency ratio versus 1a
# [4] = target: T2, TSHR; conditions: cited from earlier work
# [5] = degradation at pH = 2; cited from earlier work
# [6] = test system: TSHR; conditions: mice; cited from earlier work
# Chain of LHR (P22888 27-699): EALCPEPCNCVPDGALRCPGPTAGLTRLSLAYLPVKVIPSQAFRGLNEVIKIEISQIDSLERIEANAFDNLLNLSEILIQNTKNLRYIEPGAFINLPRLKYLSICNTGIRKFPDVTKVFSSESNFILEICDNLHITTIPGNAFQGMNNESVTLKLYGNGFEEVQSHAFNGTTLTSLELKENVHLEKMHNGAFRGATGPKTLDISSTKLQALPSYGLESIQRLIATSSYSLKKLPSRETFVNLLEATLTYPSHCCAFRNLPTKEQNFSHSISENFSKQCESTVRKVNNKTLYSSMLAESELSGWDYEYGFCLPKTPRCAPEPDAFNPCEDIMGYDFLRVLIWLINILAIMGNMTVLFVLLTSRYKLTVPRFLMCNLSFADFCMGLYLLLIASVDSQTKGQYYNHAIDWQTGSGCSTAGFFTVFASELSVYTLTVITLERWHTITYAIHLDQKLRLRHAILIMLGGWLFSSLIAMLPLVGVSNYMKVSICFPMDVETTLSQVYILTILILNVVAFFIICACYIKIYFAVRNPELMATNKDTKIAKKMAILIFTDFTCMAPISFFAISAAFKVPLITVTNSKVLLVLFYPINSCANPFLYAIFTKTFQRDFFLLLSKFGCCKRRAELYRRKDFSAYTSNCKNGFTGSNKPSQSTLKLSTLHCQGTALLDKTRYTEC
# T2 sequence (P16473 21-764): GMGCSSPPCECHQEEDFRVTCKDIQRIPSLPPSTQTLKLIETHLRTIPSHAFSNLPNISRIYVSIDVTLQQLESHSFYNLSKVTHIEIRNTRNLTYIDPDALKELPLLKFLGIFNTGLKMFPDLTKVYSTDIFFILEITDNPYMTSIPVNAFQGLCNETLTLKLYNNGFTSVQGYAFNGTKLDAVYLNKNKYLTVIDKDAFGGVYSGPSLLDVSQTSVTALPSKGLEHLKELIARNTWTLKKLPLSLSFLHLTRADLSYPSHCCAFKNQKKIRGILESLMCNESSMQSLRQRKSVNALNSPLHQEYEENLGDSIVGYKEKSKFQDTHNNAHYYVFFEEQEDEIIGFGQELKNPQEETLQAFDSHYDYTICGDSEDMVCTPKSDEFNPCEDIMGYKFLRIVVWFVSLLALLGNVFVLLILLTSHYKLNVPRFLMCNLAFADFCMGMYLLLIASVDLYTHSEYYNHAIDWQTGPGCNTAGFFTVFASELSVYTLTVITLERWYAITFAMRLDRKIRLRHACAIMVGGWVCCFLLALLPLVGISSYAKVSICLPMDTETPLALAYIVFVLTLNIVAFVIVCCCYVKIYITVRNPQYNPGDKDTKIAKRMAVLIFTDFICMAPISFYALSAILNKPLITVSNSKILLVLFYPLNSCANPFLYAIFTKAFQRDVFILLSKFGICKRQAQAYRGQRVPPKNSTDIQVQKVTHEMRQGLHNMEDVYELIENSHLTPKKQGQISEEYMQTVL
compound,measurement,setting,value
COc1ccc(C2Nc3ccccc3C(=O)N2Cc2ccco2)cc1COc1ccc(NC(C)=O)cc1 (stereo not shown) [Compound 1a],LHR efficacy,[1],no detectable
same,FSHR efficacy,[2],no detectable
COc1ccc(C2Nc3cccc(O)c3C(=O)N2Cc2ccccc2)cc1COc1ccc(NC(C)=O)cc1 (stereo not shown) [Compound 1b],Emax,[3]; HEK-EM293,100%
same,fold improvement in potency,[3]; R2 OH versus H (1g) or F (1e),3 fold
same,fold more potent than the hit compound 1a,[3],at least 10 fold
same,TSHR agonism (type),[4],full TSHR agonist
same,half-life,[5],3 h
same,in vivo efficacy,[6],in vivo efficacy in mice
COc1ccc(C2Nc3ccccc3C(=O)N2Cc2ccccc2)cc1COc1ccc(NC(C)=O)cc1 (stereo not shown) [Compound 1g],fold more potent than the hit compound 1a,[3],4 fold
COc1ccc(C2Nc3ccccc3C(=O)N2CCc2ccccc2)cc1COc1ccc(NC(C)=O)cc1 (stereo not shown) [Compound 1m],fold reduction in potency,[3]; versus benzyl analogue 1g,2 fold
COc1ccc(C2Nc3ccccc3C(=O)N2Cc2ccccc2)cc1CSc1ccc(NC(C)=O)cc1 (stereo not shown) [Compound 8a],fold more potent than the hit compound 1a,[3],at least 10 fold
COc1ccc(C2Nc3cccc(O)c3C(=O)N2Cc2ccccc2)cc1CSc1ccc(NC(C)=O)cc1 (stereo not shown) [Compound 8b],fold increase in potency,"[3]; Y oxygen replaced with sulfur (8b vs 1b, 8a vs 1g)",≤ 5 fold
same,selectivity for TSHR over LHR,[1],maintain selectivity for TSHR over LHR and FSHR
same,selectivity for TSHR over FSHR,[2],maintain selectivity for TSHR over LHR and FSHR
COc1ccc(-c2nc3cccc(O)c3c(=O)n2Cc2ccccc2)cc1COc1ccc(NC(C)=O)cc1 [Compound 9c],selectivity for TSHR over LHR,[1],selective for TSHR over LHR and FSHR
same,selectivity for TSHR over FSHR,[2],selective for TSHR over LHR and FSHR
